These results are taken from patent US20260015311A1, “AMINO LIPID COMPOUND, PREPARATION METHOD THEREFOR, AND USE THEREOF” (SHENZHEN SHENXIN BIOTECHNOLOGY CO., LTD., priority 2022, published 2026).

In data set [1] the test system is Fluc mRNA. In words: Activity of lipid nanoparticles of formulation method 2, Fluc mRNA by intramuscular administration. Format: in vivo, BALB/c mice. The protocol: (§1) The formulation method was the same as the formulation method 1, except that the molar ratio of the amino lipid compounds to DSPC, cholesterol and PEG2000-DMG was 50:10:38.5:1.5.
(§2) 9 mice were assigned randomly to each group and injected with the lipid nanoparticles at a dosage of 0.5 mg/kg by three administration routes, i.e., subcutaneous, intramuscular and tail vein injection (three mice for each administration route). After 12 hours, D-luciferin potassium salt (200 μL, 10 mg/mL) was injected into each mouse through the tail vein. After 10 minutes, the total fluorescence intensity of each mouse was observed on a living imaging system (IVIS-200, Xenogen) and taken photographs for record. The expression intensities of Fluc mRNA delivered by representative amino lipid compounds through the three administration routes are shown in Table 2-4. MC3 was used as a control and SM102 was used as a comparative compound.
Preparation of Lipid Nanoparticles: LNPs were Prepared Using the Formulation Method 2 for Intramuscular Administration.
The measurement method was the same as that of Test Example 1.

The test system of data set [2] is Fluc mRNA. Briefly: In vivo delivery of luciferase mRNA (Fluc mRNA) by lipid nanoparticles, living imaging. Set-up: species or system BALB/c mice. Conditions: after 12 hours, total fluorescence. The protocol: (§3) The amino lipid compounds of the present disclosure were mixed with DOPE, cholesterol, and PEG2000-DMG in a molar ratio of 45:10:42.5:2.5 and dissolved in absolute ethanol. By using a microinjection pump, the resultant ethanol solution and a sodium acetate solution (50 mM, pH=4.0) were mixed in a ratio of 1:3 in a microfluidic chip to prepare a crude solution of lipid nanoparticles, which were then dialyzed in 1×PBS at a controlled temperature of 4° C. for 6 h using a dialysis box (Fisher, MWCO 20,000), and filtered through a 0.22 μm microporous filter membrane before use.
as §1
The lipid nanoparticles prepared according to the above formulation method 1 or 2 were used in the biological experiments below for evaluating the performances of in vivo delivery of luciferase mRNA (Fluc mRNA). For the lipid nanoparticles obtained in the formulation method 1, the mass ratio of the amino lipid compounds to the luciferase mRNA was about 10:1, and the lipid nanoparticles were administered subcutaneously; and the lipid nanoparticles obtained in the formulation method 2 were administered by tail vein and intramuscular injection.
6-week-old female BALB/c mice weighed about 20 g were selected and fed in a SPF-grade feeding room. Animal tests were conducted strictly according to the guidelines of National Health institutions and the requirements of animal ethics.
as §2

The test system of data set [3] is Fluc mRNA. Briefly: Stability of lipid nanoparticles at 25° C., subcutaneous expression of Fluc mRNA. Type of data set: in vivo, mice. Particulars: for Fluc expression change after four weeks: 25° C., week 4 versus week 0. The protocol: as §3, §2
(§4) Preparation of Lipid Nanoparticles: The Formulation Method 1 was Used to Prepare LNPs for Subcutaneous Administration.
(§5) The particle size measurements were carried out on the day of preparation (week 0), and after one week (week 1), two weeks (week 2), and four weeks (week 4) of storage at 25° C., and the expression intensities of Fluc mRNA delivered by subcutaneous administration were determined on the day of preparation (week 0) and after four weeks (week 4).

Data set [4] in a line: Stability of lipid nanoparticles at 25° C., DLS particle size and PDI. Type of data set: physicochemical. Particulars: for particle size change after four weeks of storage: 25° C., week 4 versus week 0; for particle size: preparation day (week 0). As for the experimental part:
as §3, §4
Characterization of lipid nanoparticles: The particle size and PDI of the prepared lipid nanoparticles were measured by Nano-ZSZEN 3600 (Malvern). 40 μL of the LNP solution was taken for particle size measurement with circulation for three times, 30 seconds for each circulation.
as §5

Setting [5] is: subcutaneous administration, formulation method 1, 0.5 mg/kg.
Where [6] appears, read: week 0, subcutaneous administration.
[7] abbreviates: week 4, storage at 25° C., subcutaneous administration.
The mark [8] stands for this setting: intramuscular injection, formulation method 2, 0.5 mg/kg.
[9] abbreviates: tail vein administration, formulation method 2, 0.5 mg/kg.

For `CCCCCCCCCOC(=O)CCCCCCCN(CCCCCCCC(=O)OC(CCCCCCCC)CCCCCCCC)C1CCCC1O` (centres unmarked) [Comparative compound 1], the “Fluorescence intensity (expression intensity of Fluc mRNA)” value (from here on “Fluorescence intensity”) in the data set on Fluc mRNA [1] worked out at 1.7E + 05.

As for `CCCCCCCCCCCOC(=O)CCCCCN(CCCCCCCC(=O)OC(CCCCCCCC)CCCCCCCC)C1CCCCC1O` (centres unmarked) [Comparative compound 3], the “Fluorescence intensity” value in the data set with Fluc mRNA [1] is on record as 2.9E + 05.

Consider `CCCCCCCCC(CCCCCC)OC(=O)CCCCCN(CCCCCC(=O)OC(CCCCCC)CCCCCCCC)C1CCCCC1O` (centres unmarked) [Comparative compound 4], for which the “Fluorescence intensity” value in the data set with Fluc mRNA [1] turned out to be 1.3E + 05.

Turning to `CCCCCCCCCOC(=O)CCCCCCCN(CCCCCCCC(=O)OC(CCCCCCCC)CCCCCCCC)C1CCC(O)CC1` (centres unmarked) [Comparative compound 6], the “Fluorescence intensity” value in the data set on Fluc mRNA [1] was determined as 1.9E + 07; in the data set on Fluc mRNA [1] (listed as comparative compound 6) it was 1.9E+07.

Regarding `CCCCCCCCCCCOC(=O)CCCCCN(CCCCCCCC(=O)OC(CCCCCCCC)CCCCCCCC)C1CCC(O)CC1` (centres unmarked) [Comparative compound 7], the “Fluorescence intensity” value with Fluc mRNA [1] is listed as 4.5E + 06.

In the case of `CCCCCCCCC(CCCCCC)OC(=O)CCCCCN(CCCCCC(=O)OC(CCCCCC)CCCCCCCC)C1CCC(O)CC1` (centres unmarked) [Comparative compound 8], the “Fluorescence intensity” value with Fluc mRNA [1] is on record as 2.1E + 06.

Turning to `CCCCCCCCCOC(=O)CCCCCCCN(CCCCCCCC(=O)OC(CCCCCCCC)CCCCCCCC)C1CC(O)C1` (centres unmarked) [Compound 1], the “Fluorescence intensity” value with Fluc mRNA [2] (setting [5]) is reported as 2.7E + 07.

Take `CCCCCCCCCOC(=O)CCCCCCCN(CCCCCCCC(=O)OC(CCCCCCCC)CCCCCCCC)C1CCC(O)C1` (centres unmarked) [Compound 4]: the “Fluorescence intensity” value in the data set on Fluc mRNA [1] is reported as 6.7E + 06.

On to `CCCCCCCCCCCOC(=O)CCCCCN(CCCCCCCC(=O)OC(CCCCCCCC)CCCCCCCC)C1CCC(O)C1` (centres unmarked) [Compound 5], for which the “Fluc expression change after four weeks” value in the data set with Fluc mRNA [3] is reported as “did not decrease significantly”. The “Fluc Expression intensities” value with Fluc mRNA [3] (setting [6]) came out at 1.4E+07; with Fluc mRNA [3] (setting [7]), 1.1E+07. In addition, the “Fluorescence intensity” value in the data set on Fluc mRNA [2] (setting [5]) was 1.4E + 07. In addition, in data set [4], the “particle size change after four weeks of storage” value (shortened to “particle size change”) is listed as “did not increase significantly”. Also, the particle size entry in data set [4] was “about 100 nm”. The Z-Average in data set [4] (week 0 (day of preparation)) came out at 105 nm·days; in data set [4] (week 1, storage at 25° C.) it was 110 nm·days; in data set [4] (week 2, storage at 25° C.), 110 nm·days; in data set [4] (week 4, storage at 25° C.), 115 nm·days. Moreover, the PDI in data set [4] (week 1, storage at 25° C.) is reported as 0.05; in data set [4] (week 2, storage at 25° C.), 0.06.

Regarding `CCCCCCCCCOC(=O)CCCCCCCN(CCCCCCCC(=O)OC(CCCCCCCC)CCCCCCCC)C1CCCC(O)C1` (centres unmarked) [Compound 6], the “Fluc expression change after four weeks” value in the data set on Fluc mRNA [3] is listed as “did not decrease significantly”. In addition, the figures for the “Fluc Expression intensities” value in the data set with Fluc mRNA [3] (setting [6]) and in the data set with Fluc mRNA [3] (setting [7]) were 3.7E+08 and 3.6E+08, respectively. For the same molecule, the “Fluorescence intensity” value with Fluc mRNA [2] (setting [8]) is reported as 1.2E + 08; with Fluc mRNA [2] (setting [5]), 3.7E + 08; with Fluc mRNA [2] (setting [9]), 1.7E + 08. Moreover, the “particle size change” value in data set [4] is given as “did not increase significantly”. The particle size result in data set [4] is “about 100 nm”. The Z-Average in data set [4] (week 0 (day of preparation)) is 110 nm·days; in data set [4] (week 1, storage at 25° C.), 110 nm·days; in data set [4] (week 2, storage at 25° C.), 125 nm·days; in data set [4] (week 4, storage at 25° C.), 125 nm·days. Further, the PDI in data set [4] (week 1, storage at 25° C.) came out at 0.05; in data set [4] (week 2, storage at 25° C.), 0.04.

For the molecule `CCCCCCCCC(CCCCCC)OC(=O)CCCCCN(CCCCCC(=O)OC(CCCCCC)CCCCCCCC)C1CCCC(O)C1` (centres unmarked) [Compound 8], the entries for the “Fluorescence intensity” value in the data set with Fluc mRNA [2] (setting [8]), in the data set with Fluc mRNA [2] (setting [9]) and with Fluc mRNA [1] were 9.2E + 06, 5.1E + 06 and 9.2E + 06, respectively.

Consider `CCCCCCCCCOC(=O)CCCCCCCN(CCCCCCOC(=O)C(CCCCCC)CCCCCCCC)C1CCCC(O)C1` (centres unmarked) [Compound 9], for which the “Fluc expression change after four weeks” value in the data set with Fluc mRNA [3] is “did not decrease significantly”. The “Fluc Expression intensities” value with Fluc mRNA [3] (setting [6]) came to 4.2E+07; in the data set with Fluc mRNA [3] (setting [7]), 3.1E+07. Also, the “Fluorescence intensity” value with Fluc mRNA [2] (setting [8]) worked out at 3.7E + 07; in the data set with Fluc mRNA [2] (setting [5]), 4.2E + 07. Also, in data set [4], the “particle size change” value is “did not increase significantly”. For the same molecule, the particle size entry in data set [4] is “about 100 nm”. The Z-Average in data set [4] (week 0 (day of preparation)) came out at 115 nm·days; in data set [4] (week 1, storage at 25° C.) it was 120 nm·days; in data set [4] (week 2, storage at 25° C.) it was 125 nm·days; in data set [4] (week 4, storage at 25° C.) it was 125 nm·days. For the same molecule, the PDI in data set [4] (week 1, storage at 25° C.) is reported as 0.03; in data set [4] (week 2, storage at 25° C.), 0.06.

In the case of `CCCCC/C=C\C/C=C\CCCCCCCCOC(=O)CCCCCCCN(CCCCCCOC(=O)C(CCCCCC)CCCCCCCC)C1CCCC(O)C1` (centres unmarked) [Compound 12], the “Fluorescence intensity” value in the data set on Fluc mRNA [2] (setting [5]) came to 4.2E + 06; with Fluc mRNA [2] (setting [9]), 6.2E + 06.

Regarding `CCCCCCCCC(CCCCCC)C(=O)OCCCCCCN(CCCCCCOC(=O)C(CCCCCC)CCCCCCCC)C1CCCC(O)C1` (centres unmarked) [Compound 14], the “Fluorescence intensity” value with Fluc mRNA [2] (setting [8]) is listed as 8.2E + 06; in the data set with Fluc mRNA [2] (setting [9]), 4.1E + 06.

With `CCCCCCCCC(CCCCCC)OC(=O)CCCCCN(CCCCCCOC(=O)C(CCCCCC)CCCCCCCC)C1CCCC(O)C1` (centres unmarked) [Compound 15], the “Fluorescence intensity” value turned out to be 1.8E + 07 in the data set with Fluc mRNA [2] (setting [8]), 4.7E + 07 in the data set with Fluc mRNA [2] (setting [5]) and 3.5E + 06 in the data set with Fluc mRNA [2] (setting [9]).

Take `CCCCCCCCCOC(=O)CCCCCCCN(CCCCCCCC(=O)OC(CCCCCCCC)CCCCCCCC)C1CCCC(OC)C1` (centres unmarked) [Compound 16]: in the data set on Fluc mRNA [2] (setting [5]), the “Fluorescence intensity” value is reported as 1.3E + 06.

As to `CCCCCCCCCCCOC(=O)CCCCCCCN(CCCCCCCC(=O)OC(CCCCCCCC)CCCCCCCC)C1CCCC(C#N)C1` (centres unmarked) [Compound 17], the “Fluorescence intensity” value in the data set on Fluc mRNA [2] (setting [8]) is given as 6.2E + 06.

Turning to `CCCCCCCCCOC(=O)CCCCCCCN(CCCCCCCC(=O)OC(CCCCCCCC)CCCCCCCC)C1CCCC(F)C1` (centres unmarked) [Compound 18], the “Fluorescence intensity” value in the data set on Fluc mRNA [2] (setting [8]) turned out to be 7.8E + 06.

`CCCCCCCCCOC(=O)CCCCCCCN(CCCCCCCC(=O)OC(CCCCCCCC)CCCCCCCC)C1CCCC(C(=O)NCCCC)C1` (centres unmarked) [Compound 21]: in the data set with Fluc mRNA [2] (setting [5]), the “Fluorescence intensity” value is reported as 1.1E + 06.
